Laboratory results as given in patent US20060194814A1, “Benzamide compounds” (priority 2003, published 2006).
Entries after “also recorded” stand apart in the source; their conditions may differ. Like-named read-outs stand apart in the source and are kept apart here.

Assays:
HIV-1 IIIB strain [1] = assay: HIV-1 IIIB replication in HeLa indicator cells (AV-Finder-HIV assay), no pre-medication; assay type: cell-based; conditions: for efficacy in reducing HIV-1 IIIB replication compared to AZT, ddI or 3TC: human cells
HIV-1 IIIB strain [2] = assay: HIV-1 IIIB replication in HeLa cells, 24 hours pre-medication; assay type: cell-based
HIV-1 IIIB strain [3] = assay: HIV-1 IIIB replication in HeLa cells, 48 hours pre-medication; assay type: cell-based; conditions: 48 hours pretreatment, read-out: IC50 of inhibition of HIV replication
[4] = test system: multi-drug resistant HIV MDR-769 strain; assay: HIV MDR 769 strain replication in HeLa cells, without pre-medication; assay type: cell-based
HeLa cells = assay: MTT cytotoxicity assay after the HIV replication protocol; assay type: cell-based, human; conditions: MTT cytotoxicity assay
[5] = test system: Y1 mouse adrenal tumor cells; assay: dbcAMP-induced 20á-hydroxyprogesterone synthesis in Y1 cells; assay type: cell-based
Experimental: Culture media were then changed and cells were stimulated with 1 mM dbcAMP and the treatment for 24 to 48 hours. […] The synthesis of 20 —OH progesterone and progesterone in Y1 and MA-10 cell media respectively were measured by RIA (Brown et al., 1992). H295R human adrenal tumor cells were seeded in 48-well plates at 10^5 cells/well and incubated for 24 hours. […] At the end of the incubation time period, cells were treated with 1 mM dbcAMP for 48 hours. Cortisol levels in the media were determined by radioimmunoassay as previously described (Amri et al., 1996).

[6] = no pre-medication, concentrations up to 1 μM

Nc1ccn([C@@H]2CS[C@H](CO)O2)c(=O)n1 [3TC]
inhibition of HIV-1 IIIB viral replication reached (HIV-1 IIIB strain [1]; no pre-medication, maximal inhibition reached (maximal concentrations)): 90%

Cc1cn([C@H]2C[C@H](N=[N+]=[N-])[C@@H](CO)O2)c(=O)[nH]c1=O [AZT]
inhibition of the replication (HIV-1 IIIB strain [2]; at 30 pM): < 30%
IC50 (HIV-1 IIIB strain [3]): 30 nM
effect on HIV MDR 769 strain replication [4]: not effective; also recorded: ineffective
IC50 (HeLa cells): 161 µM

CC1CN(C(=O)C(Cc2c[nH]c3ccccc23)NC(=O)c2ccc([N+](=O)[O-])cc2)CCN1C(=O)C1CC1 (stereo not drawn) [SP010, N-[2-(4-cyclopropanecarbonyl-3-methyl-piperazin-1-yl)-1-(1H-indol-3-yl-methyl)-2-oxo-ethyl]-4-nitro-benzamide]
concentration at the peak of the inhibitory activity (HIV-1 IIIB strain [2]): 0.03 nM
inhibition at 0.01 µM (HIV-1 IIIB strain [1]; Human immunodeficiency virus 1, IIIB, HeLa, no pre-medication, at 0.01 μM, read-out: strongest inhibition of viral replication): 55.6 ± 2.12%
efficacy in reducing HIV-1 IIIB replication compared to AZT, ddI or 3TC (HIV-1 IIIB strain [1]): efficacy higher than AZT, ddI or 3TC
inhibition of viral replication (HIV-1 IIIB strain [1]; [6]): 40%
potency compared to ddI (HIV-1 IIIB strain [1]; [6]): more potent that ddI
efficacy in inhibiting viral replication compared to ddI (HIV-1 IIIB strain [1]; within the range of 1 nM to 1 μM): higher efficacy than ddI
effect on dbcAMP-induced 20á-hydroxyprogesterone production ([5]; Y1 cells): decreased in a dose-dependent manner
potency on cAMP-corticosteroid formation compared to procaine ([5]; even at a concentration as low as 1 μM): as potent as procaine
IC50 (HIV-1 IIIB strain [3]; Human immunodeficiency virus 1, IIIB, HeLa): 0.01 nM
effect on HIV MDR 769 strain replication [4]: effectively blocked
maximal inhibition of MDR HIV strain replication [4]: 50%

CCN(CC)CCNC(=O)c1ccc(N)cc1 [SP100, procainamide]
efficacy on viral replication compared to AZT (HIV-1 IIIB strain [2]): effective but at the same extent as AZT
efficacy in reducing HIV-1 IIIB replication compared to AZT, ddI or 3TC (HIV-1 IIIB strain [1]): efficacy higher than AZT, ddI or 3TC
effect on HIV MDR 769 strain replication [4]: effectively blocked

O=c1[nH]cnc2c1ncn2[C@H]1CC[C@@H](CO)O1 [ddI]
strongest inhibition of viral replication (HIV-1 IIIB strain [1]; no pre-medication, at 0.01 μM): 26.37±26.11%
IC50 (HeLa cells): 89 µM
